From the supplement of paper PMC4862054

What follows are compounds tested on HCC1599 (assay: normalised response (% of control), CellTox Green; higher = less cell death (100 = DMSO, 0 = benzethonium chloride kill control)). Conditions: incubation time: 72 h.
Summary of the method: (§1)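 After 72 h with compound in 384-well plates, breast cancer cell lines seeded as 20 µl suspension were read for CellTox Green fluorescence at 485/520 nm. CellTiter-Glo luminescence was then read after 10 min at room temperature. Compound was present at 5 concentrations in 10-fold steps over a 10,000-fold range set per compound, and plates were normalised to 0.1 % DMSO (100) and a positive kill control (0). Values are normalised signals, each at a single concentration.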

Point of comparison: `Cc1cccc(-c2nn3c(c2-c2ccnc4ccc(C(N)=O)cc24)CCC3)n1` [Galunisertib] (1000 nM), normalised response 112%. Against it:
- O=S(=O)(c1cccc2cnccc12)N1CCCNCC1 [Fasudil] (50000 nM) — lower, 80.3%
- CS(=O)(=O)N1CCN(Cc2cc3nc(-c4cccc5[nH]ncc45)nc(N4CCOCC4)c3s2)CC1 [Pictilisib] (100 nM) — lower, 108%
- CC(C)N(CCCNC(=O)Nc1ccc(C(C)(C)C)cc1)C[C@H]1O[C@@H](n2cc(Br)c3c(N)ncnc32)[C@H](O)[C@@H]1O [SGC0946] (10000 nM) — lower, 81.6%

What follows are compounds tested on MDA-MB-453 in the same assay as above. Conditions: incubation time: 72 h.
Summary of the method: as §1

Point of comparison: `Cc1cccc(-c2nn3c(c2-c2ccnc4ccc(C(N)=O)cc24)CCC3)n1` [Galunisertib] (1000 nM), normalised response 98.8%. Against it:
- CC/C(=C(\c1ccc(O)cc1)c1ccc(OCCN(C)C)cc1)c1ccccc1 [4-hydroxytamoxifen] (10000 nM) — lower, 46.9%
- O=S(=O)(c1cccc2cnccc12)N1CCCNCC1 [Fasudil] (50000 nM) — higher, 101%
- CS(=O)(=O)N1CCN(Cc2cc3nc(-c4cccc5[nH]ncc45)nc(N4CCOCC4)c3s2)CC1 [Pictilisib] (100 nM) — higher, 104%
- CC(C)N(CCCNC(=O)Nc1ccc(C(C)(C)C)cc1)C[C@H]1O[C@@H](n2cc(Br)c3c(N)ncnc32)[C@H](O)[C@@H]1O [SGC0946] (10000 nM) — lower, 91.9%

These compounds were tested on CAL-120 in the same assay as above. Conditions: incubation time: 72 h.
Summary of the method: as §1

Point of comparison: `Cc1cccc(-c2nn3c(c2-c2ccnc4ccc(C(N)=O)cc24)CCC3)n1` [Galunisertib] (1000 nM), normalised response 99.3%. Against it:
- CC/C(=C(\c1ccc(O)cc1)c1ccc(OCCN(C)C)cc1)c1ccccc1 [4-hydroxytamoxifen] (10000 nM) — lower, 44.5%
- O=S(=O)(c1cccc2cnccc12)N1CCCNCC1 [Fasudil] (50000 nM) — lower, 93.2%
- CS(=O)(=O)N1CCN(Cc2cc3nc(-c4cccc5[nH]ncc45)nc(N4CCOCC4)c3s2)CC1 [Pictilisib] (100 nM) — higher, 102%
- CC(C)N(CCCNC(=O)Nc1ccc(C(C)(C)C)cc1)C[C@H]1O[C@@H](n2cc(Br)c3c(N)ncnc32)[C@H](O)[C@@H]1O [SGC0946] (10000 nM) — lower, 97.4%

Each compound was assayed on HDQ-P1 in the same assay as above. Conditions: incubation time: 72 h.
Summary of the method: as §1

Point of comparison: `CC(C)N(CCCNC(=O)Nc1ccc(C(C)(C)C)cc1)C[C@H]1O[C@@H](n2cc(Br)c3c(N)ncnc32)[C@H](O)[C@@H]1O` [SGC0946] (10000 nM), normalised response 99.1%. Against it:
- CC/C(=C(\c1ccc(O)cc1)c1ccc(OCCN(C)C)cc1)c1ccccc1 [4-hydroxytamoxifen] (10000 nM) — lower, 81.4%
- Cc1cccc(-c2nn3c(c2-c2ccnc4ccc(C(N)=O)cc24)CCC3)n1 [Galunisertib] (1000 nM) — higher, 108%
- CS(=O)(=O)N1CCN(Cc2cc3nc(-c4cccc5[nH]ncc45)nc(N4CCOCC4)c3s2)CC1 [Pictilisib] (100 nM) — higher, 107%

The compounds below were run on DU-4475 in the same assay as above. Conditions: incubation time: 72 h.
Summary of the method: as §1

Point of comparison: `Cc1cccc(-c2nn3c(c2-c2ccnc4ccc(C(N)=O)cc24)CCC3)n1` [Galunisertib] (1000 nM), normalised response 108%. Against it:
- CC/C(=C(\c1ccc(O)cc1)c1ccc(OCCN(C)C)cc1)c1ccccc1 [4-hydroxytamoxifen] (10000 nM) — lower, 92%
- O=S(=O)(c1cccc2cnccc12)N1CCCNCC1 [Fasudil] (50000 nM) — lower, 95.4%
- CS(=O)(=O)N1CCN(Cc2cc3nc(-c4cccc5[nH]ncc45)nc(N4CCOCC4)c3s2)CC1 [Pictilisib] (100 nM) — lower, 101%
- CC(C)N(CCCNC(=O)Nc1ccc(C(C)(C)C)cc1)C[C@H]1O[C@@H](n2cc(Br)c3c(N)ncnc32)[C@H](O)[C@@H]1O [SGC0946] (10000 nM) — lower, 98.7%

These compounds were tested on HCC1937 in the same assay as above. Conditions: incubation time: 72 h.
Summary of the method: as §1

Point of comparison: `CC/C(=C(\c1ccc(O)cc1)c1ccc(OCCN(C)C)cc1)c1ccccc1` [4-hydroxytamoxifen] (10000 nM), normalised response -22.6%. Against it:
- O=S(=O)(c1cccc2cnccc12)N1CCCNCC1 [Fasudil] (50000 nM) — higher, 79.6%
- Cc1cccc(-c2nn3c(c2-c2ccnc4ccc(C(N)=O)cc24)CCC3)n1 [Galunisertib] (1000 nM) — higher, 116%
- CC(C)N(CCCNC(=O)Nc1ccc(C(C)(C)C)cc1)C[C@H]1O[C@@H](n2cc(Br)c3c(N)ncnc32)[C@H](O)[C@@H]1O [SGC0946] (10000 nM) — higher, 94%

These compounds were tested on MFM-223 in the same assay as above. Conditions: incubation time: 72 h.
Summary of the method: as §1

Point of comparison: `Cc1cccc(-c2nn3c(c2-c2ccnc4ccc(C(N)=O)cc24)CCC3)n1` [Galunisertib] (1000 nM), normalised response 102%. Against it:
- CC/C(=C(\c1ccc(O)cc1)c1ccc(OCCN(C)C)cc1)c1ccccc1 [4-hydroxytamoxifen] (10000 nM) — lower, 91.1%
- O=S(=O)(c1cccc2cnccc12)N1CCCNCC1 [Fasudil] (50000 nM) — the same, 102%
- CS(=O)(=O)N1CCN(Cc2cc3nc(-c4cccc5[nH]ncc45)nc(N4CCOCC4)c3s2)CC1 [Pictilisib] (100 nM) — higher, 105%
- CC(C)N(CCCNC(=O)Nc1ccc(C(C)(C)C)cc1)C[C@H]1O[C@@H](n2cc(Br)c3c(N)ncnc32)[C@H](O)[C@@H]1O [SGC0946] (10000 nM) — lower, 89.3%

The compounds below were run on MDA-MB-436 in the same assay as above. Conditions: incubation time: 72 h.
Summary of the method: as §1

Point of comparison: `CC/C(=C(\c1ccc(O)cc1)c1ccc(OCCN(C)C)cc1)c1ccccc1` [4-hydroxytamoxifen] (10000 nM), normalised response 74.7%. Against it:
- O=S(=O)(c1cccc2cnccc12)N1CCCNCC1 [Fasudil] (50000 nM) — higher, 94.4%
- CS(=O)(=O)N1CCN(Cc2cc3nc(-c4cccc5[nH]ncc45)nc(N4CCOCC4)c3s2)CC1 [Pictilisib] (100 nM) — higher, 107%
- CC(C)N(CCCNC(=O)Nc1ccc(C(C)(C)C)cc1)C[C@H]1O[C@@H](n2cc(Br)c3c(N)ncnc32)[C@H](O)[C@@H]1O [SGC0946] (10000 nM) — higher, 75%

What follows are compounds tested on MDA-MB-231 in the same assay as above. Conditions: incubation time: 72 h.
Summary of the method: as §1

Point of comparison: `O=S(=O)(c1cccc2cnccc12)N1CCCNCC1` [Fasudil] (50000 nM), normalised response 50.6%. Against it:
- CC/C(=C(\c1ccc(O)cc1)c1ccc(OCCN(C)C)cc1)c1ccccc1 [4-hydroxytamoxifen] (10000 nM) — lower, 7.14%
- Cc1cccc(-c2nn3c(c2-c2ccnc4ccc(C(N)=O)cc24)CCC3)n1 [Galunisertib] (1000 nM) — higher, 127%
- CS(=O)(=O)N1CCN(Cc2cc3nc(-c4cccc5[nH]ncc45)nc(N4CCOCC4)c3s2)CC1 [Pictilisib] (100 nM) — higher, 92.3%
- CC(C)N(CCCNC(=O)Nc1ccc(C(C)(C)C)cc1)C[C@H]1O[C@@H](n2cc(Br)c3c(N)ncnc32)[C@H](O)[C@@H]1O [SGC0946] (10000 nM) — higher, 71.9%

The compounds below were run on Hs578T (assay: normalised response (% of control), CellTiter-Glo; higher = more viable cells (100 = DMSO, 0 = benzethonium chloride kill control)). Conditions: incubation time: 72 h.
Procedure: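 DSRT, 72 h incubation, CellTox Green / CellTiter-Glo readout. Signal is normalised to DMSO and benzethonium chloride controls. Value is the normalised response at the highest dose.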

Point of comparison: `CC/C(=C(\c1ccc(O)cc1)c1ccc(OCCN(C)C)cc1)c1ccccc1` [4-hydroxytamoxifen] (10000 nM), normalised response 80.8%. Against it:
- O=S(=O)(c1cccc2cnccc12)N1CCCNCC1 [Fasudil] (50000 nM) — higher, 86.7%
- Cc1cccc(-c2nn3c(c2-c2ccnc4ccc(C(N)=O)cc24)CCC3)n1 [Galunisertib] (1000 nM) — higher, 106%
